According to patent US20060189608A1, “Methods for treating ocular angiogenesis, retinal edema, retinal ischemia, and diabetic retinopathy using selective RTK inhibitors” (Alcon, Inc., priority 2005, published 2006):

How the values were obtained:
[1] = system: existing laser-induced choroidal neovascularization (CNV); assay: Regression of existing laser-induced CNV, intravitreal injection, mouse; format: in vivo; details: for Mean CNV / Median CNV: intravitreal at day 7, day 14; for inhibition of CNV as compared to vehicle-injected eyes at day 14 post-laser: intravitreal at day 7; for reduction of median CNV area compared to CNV present at 7 days post-laser: intravitreal at day 7, read at day 14
Experimental: (§1) Methods. CNV was generated by laser-induced rupture of Bruch's membrane. Briefly, 4 to 5 week old male C57BL/6J mice were anesthetized using intraperitoneal administration of ketamine hydrochloride (100 mg/kg) and xylazine (5 mg/kg) and the pupils of both eyes dilated with topical ocular instillation of 1% tropicamide and 2.5% Mydfin®. One drop of topical cellulose (Gonioscopic®) was used to lubricate the cornea. A hand-held cover slip was applied to the cornea and used as a contact lens to aid visualization of the fundus. Three to four retinal burns were placed in randomly assigned eye (right or left eye for each mouse) using the Alcon 532 nm EyeLite laser with a slit 5 lamp delivery system. The laser burns were used to generate a rupture in Bruch's membrane, which was indicated ophthalmoscopically by the formation of a bubble under the retina. Only mice with laser burns that produced three bubbles per eye were included in the study. Bums were typically placed at the 3, 6, 9 or 12 o'clock positions in the posterior pole of the retina, avoiding the branch retinal arteries and veins.
(§2) Each mouse was randomly assigned into one of the following treatment groups: noninjected controls, sham-injected controls, vehicle-injected mice, or one of three RTKi-injected groups. Control mice received laser photocoagulation in both eyes, where one eye received a sham injection, i.e. a pars plana needle puncture. […] The intravitreal injection was performed immediately after laser photocoagulation. At 14 days post-laser, all mice were anesthetized and systemically perfused with fluorescein-labeled dextran. Eyes were then harvested and prepared as choroidal flat mounts with the RPE side oriented towards the observer. All choroidal flat mounts were examined using a fluorescent microscope. Digital images of the CNV were captured, where the CNV was identified as areas of hyperfluorescence within the pigmented background. Computerized image analysis was used to delineate and measure the two dimensional area of the hyperfluorescent CNV per lesion (um^2) for the outcome measurement. The median CNV area/burn per mouse per treatment group or the mean CNV area/burn per treatment group was used for statistical analysis depending on the normality of data distribution; P≦0.05 was considered significant.
METHODS: CNV was generated by laser-induced rupture of Bruch's membrane as described above in Example 3. Each mouse was randomly assigned to one of the following treatment groups: noninjected controls, sham-injected controls, vehicle-injected mice, AL-39324 injected groups. Control mice received laser photocoagulation in both eyes, where one eye received a sham injection, i.e. a pars plana needle puncture. […] All mice received laser photocagulation at day 0. For mice randomized to an injection group, a single intravitreal injection was performed at 7 days post-laser. Also at 7 days post-laser, several mice with no-injection were euthanized and their eyes used for controls. At 14 days post-laser, all remaining mice were euthanized and systemically perfused with fluorescein-labeled dextran. Eyes were then harvested and prepared as choroidal flat mounts with the RPE side oriented towards the observer. Choroidal flat mounts were analyzed as described above in Example 3.

[2] = system: laser-induced choroidal neovascularization (CNV); assay: Laser-induced CNV, oral gavage, prevention paradigm, mouse; format: in vivo; details: for inhibition of CNV: prevention paradigm; for Mean CNV / Median CNV: prevention
Experimental: as §1, §2
(§3) METHODS: CNV was generated by laser-induced rupture of Bruch's membrane as described in Example 3 above. […] The mice received an oral gavage of 0, 1.5, 5, or 10 mg/kg twice per day and for 14 days post-laser. […] Oral gavage dosing was continued twice per day for 14 days post-laser. Several mice were Is euthanized at day 7 post-laser and used for controls. At 14 days post-laser, all mice were anesthetized and systemically perfused with fluorescein-labeled dextran. Eyes were then harvested and prepared as choroidal flat mounts as described in Example 3 above.

[3] = system: VEGF-induced retinal vascular permeability; assay: VEGF-induced retinal vascular permeability, intravitreal injection, rat; format: in vivo, Sprague-Dawley rats; details: 10 μl intravitreal
Experimental: METHODS: Adult Sprague-Dawley rats were anesthetized with intramuscular ketamine/xylazine and their pupils dilated with topical cycloplegics. […] Ten μl of each compound was intravitreally injected in each treatment eye (n=6 eyes per group). Three days following first intravitreal injection, all animals received an intravitreal injection of 10 μl 400 ng hr VEGF in both eyes. Twenty-four hours post-injection of VEGF, intravenous infusion of 3% Evans blue dye was performed in all animals, where 50 mg/kg of Evans blue dye was injected via the lateral tail vein during general anesthesia. After the dye had circulated for 90 minutes, the rats were euthanized. The rats were then systemically perfused with balanced salt solution, and then both eyes of each rat were immediately enucleated and the retinas harvested using a surgical microscope. After measurement of the retinal wet weight, the Evans blue dye was extracted by placing the retina in a 0.2 ml formamide (Sigma) and then the homogenized and ultracentrifuged. Blood samples were centrifuged and the plasma diluted 100 fold in formamide. For both retina and plasma samples, 60 μl of supernatant was used to measure the Evans blue dye absorbance (ABS) with at 620/740 nm. The blood-retinal barrier breakdown and subsequent retinal vascular permeability as measured by dye absorbance were calculated as means±s.e.m. of net ABS/wet weight/plasma ABS. A two-tailed Student's t-test was used for pair wise comparisons between OS and OD eyes in each group. One way ANOVA was used to determine an overall difference between treatment means, where P≦0.05 was considered significant.

LYN = LYN (Homo sapiens, UniProt P07948); assay: Kinase inhibition profile, non-related TK; format: biochemical; details: ATP concentration of 1 nM
Sequence of LYN (P07948 whole entry): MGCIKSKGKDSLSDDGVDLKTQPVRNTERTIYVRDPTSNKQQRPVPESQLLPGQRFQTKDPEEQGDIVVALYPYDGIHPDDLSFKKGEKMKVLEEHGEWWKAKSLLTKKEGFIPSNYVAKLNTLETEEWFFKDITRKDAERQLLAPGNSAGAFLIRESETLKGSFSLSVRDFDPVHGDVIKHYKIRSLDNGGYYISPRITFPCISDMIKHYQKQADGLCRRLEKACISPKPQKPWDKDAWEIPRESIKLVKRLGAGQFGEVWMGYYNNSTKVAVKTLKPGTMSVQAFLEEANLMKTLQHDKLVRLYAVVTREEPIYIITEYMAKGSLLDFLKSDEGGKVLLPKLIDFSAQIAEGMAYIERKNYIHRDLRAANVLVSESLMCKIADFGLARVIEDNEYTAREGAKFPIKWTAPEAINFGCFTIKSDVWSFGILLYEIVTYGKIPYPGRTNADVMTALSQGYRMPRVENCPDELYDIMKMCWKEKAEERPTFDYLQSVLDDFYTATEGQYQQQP

[4] = system: existing laser-induced choroidal neovascularization (CNV); assay: Laser-induced CNV, oral gavage, regression paradigm, mouse; format: in vivo; details: for Mean CNV / Median CNV: regression
Experimental: as §1, §2, §3

[5] = system: diabetes-induced retinal vascular permeability; assay: Diabetes-induced retinal vascular permeability, oral gavage, STZ rat model
Experimental: METHODS: Diabetes was induced in male Long-Evans rats with 65 mg/kg streptozotocin (STZ) after an overnight fast. […] After 2 weeks, jugular vein catheters were implanted 1 day prior to experimentation for the infusion of indicator dye. Retinal vascular permeability, RVP, was measured using Evan's blue albumin permeation (45 mg/kg) after a 2 hour circulation period.

Cc1ccc(F)c(NC(=O)Nc2ccc(-c3cccc4[nH]nc(N)c34)cc2)c1 [AL-39324, N-[4-[3-amino-1H-indazol-4-yl)phenyl]-N′-(2-fluoro-5-methylphenyl)urea]
Mean CNV ([1]; 1% (2 μl)): 31000 µm² | Median CNV ([1]; 1% (2 μl)): 28300 µm² | Mean CNV ([1]; 1% (5 μl)): 39200 µm² | Median CNV ([1]; 1% (5 μl)): 36400 µm² | inhibition of CNV as compared to vehicle-injected eyes at day 14 post-laser ([1]; 2 μl 1%): 55.9% | reduction of median CNV area compared to CNV present at 7 days post-laser ([1]; 2 μl 1%): 45.4% | Mean CNV ([1]; 3% (5 μl)): 35200 µm² | Median CNV ([1]; 3% (5 μl)): 30600 µm² | inhibition of CNV as compared to vehicle-injected eyes at day 14 post-laser ([1]; 3%): 52.3% | inhibition of CNV as compared to vehicle-injected eyes at day 14 post-laser ([1]; 5 μl 1%): 43.7% | reduction of median CNV area compared to CNV present at 7 days post-laser ([1]; 5 μl 1%): 29.7% | reduction of median CNV area compared to CNV present at 7 days post-laser ([1]; 5 μl 3%): 41.0% | inhibition of CNV ([2]; 3 mg/kg/day oral gavage): no significant inhibition | Mean CNV ([2]; 3 mg/kg/day oral): 21670 μm^2 | Median CNV ([2]; 3 mg/kg/day oral): 22317 μm^2 | inhibition of CNV ([2]; 10 mg/kg/day oral gavage): 84.3% | Mean CNV ([2]; 10 mg/kg/day oral): 4046 μm^2 | Median CNV ([2]; 10 mg/kg/day oral): 4137 μm^2 | inhibition of CNV ([2]; 20 mg/kg/d oral gavage): complete inhibition of CNV | Mean CNV ([2]; 20 mg/kg/day oral): 3266 μm^2 | Median CNV ([2]; 20 mg/kg/day oral): 0 μm^2 | decrease of retinal vascular permeability as compared to vehicle-injected eyes ([3]; 0.3%): 50% | mean ABS±s.e.m. (net ABS/wet weight/plasma ABS, Evans blue) ([3]; 0.3%): 4.84±0.64 | decrease of retinal vascular permeability as compared to vehicle-injected eyes ([3]; 1.0%): 61% | mean ABS±s.e.m. (net ABS/wet weight/plasma ABS, Evans blue) ([3]; 1.0%): 3.87±0.62 | decrease of retinal vascular permeability as compared to vehicle-injected eyes ([3]; 3%): 53% | mean ABS±s.e.m. (net ABS/wet weight/plasma ABS, Evans blue) ([3]; 3.0%): 4.75±0.40 | IC50 (LYN): > 20 µM | regression of existing CNV ([4]; 3 mg/kg/day oral from day 7 post-laser): did not show a significant regression of existing CNV | Mean CNV ([4]; 3 mg/kg/day oral): 35442 μm^2 | Median CNV ([4]; 3 mg/kg/day oral): 33967 μm^2 | regression of existing CNV as compared to nontreated controls ([4]; 10 mg/kg/day oral from day 7 post-laser): 41.8% | Mean CNV ([4]; 10 mg/kg/day oral): 29773 μm^2 | Median CNV ([4]; 10 mg/kg/day oral): 27389 μm^2 | regression of existing CNV as compared to nontreated controls ([4]; 20 mg/kg/day oral from day 7 post-laser): 68.0% | Mean CNV ([4]; 20 mg/kg/day oral): 15706 μm^2 | Median CNV ([4]; 20 mg/kg/day oral): 15036 μm^2 | RVP ([5]; NDM treated at 5 mg/kg/d): unchanged | Blood glucose levels and body weights, DM control vs DM treatment groups ([5]; oral, DM rats): not different | tolerability, systemic or ERG side effects ([5]; oral, NDM and DM groups): well tolerated by both NDM and DM groups with no observed systemic or ERG side effects
